Read-outs that look alike come from different tables or passages of the source.
Columns and labels:
[1] = test system: EGFR activating mutation (such as exon 19 deletion activating mutation, L858R activating mutation, T790M drug resistance mutation and exon 20 insertion …); details: disclosed in CN105461695B; cited from earlier work
[2] = Solid storage stability test; format: physicochemical; details: for Original morphology / Original purity: original solid before storage; for chemical and physical stability after storage (summary): solid/25° C./60% RH/open/1 week and/or solid/60° C./closed container/1 week
Experimental: Each amorphous salt solid was weighed (two 2 mg samples were weighed for purity testing after solid storage stability study, and one 10 mg sample was weighed for XRPD testing after solid storage stability study) and placed in a glass vial. In a 25° C./60% RH solid storage stability test, the amorphous salt solid was placed in a 25° C./60% RH constant temperature and humidity chamber, and placed in the dark for 1 week (i.e. “solid/25° C./60% RH/open/1 week”), and in a 60° C. solid storage stability test, the amorphous salt solid was sealed in an oven at 60° C. and heated for 1 week in the dark (i.e. “solid/60° C./closed container/l week”). Then the sample was taken out for purity testing, crystal form detection and appearance observation, respectively.

[3] = Solid solubility test (2 h and 24 h); format: physicochemical; details: for Solubility measured at 2 h / solubility at 2 h: 37° C., based on free base; for XRPD measured at 2 h: state of sample / solid fraction; for solubility at 2 h / solubility at 24 h: thermodynamic from solid; for solubility at 2 h: read-out: Solubility measured at 2 h; for solubility at 24 h: read-out: Solubility measured at 24 h; for XRPD measured at 24 h: 24 h test, state of sample
Experimental: samples were weighed for each amorphous salt solid (equivalent to 20 mg of free base), and 10 mL of the following solvents were respectively added: 0.1N HCl solution (pH 1.0), 50 mM phosphate buffer (pH 4.5), FeSSIF-V1 (pH 5.0), FaSSIF-V1 (pH 6.5) and SGF (pH 2.0), […] The suspension was then centrifuged at 37° C., the supernatant was measured for solubility by HPLC, and the solid fraction was measured for XRPD. The target solubility was at least 2 mg (based on free base)/mL.

[4] = Chemical and physical stability of the salts at the end of the preparation; format: physicochemical
From the text: It is crucial for drug development whether the salts obtained as above have chemical and physical stability at the end of the preparation. The chemical and physical stability of the salts at the end of the preparation includes: […]

[5] = Test BS1: solid/25° C./60% RH/open/1 week
[6] = listed as 2 eq. hydrochloride salt
[7] = listed as amorphous 2 eq. hydrochloride salt
[8] = solid/60° C./closed container/1 week (Test BS1)
[9] = FaSSIF-V1 (pH 6.5) (Test ES4, partly printed ES1)
[10] = Test ES1: 0.1N HCl solution (pH 1.0)
[11] = Test ES2: 50 mM phosphate buffer (pH 4.5)
[12] = FeSSIF-V1, 37 °C, pH 5, fessif, Test ES3: FeSSIF-V1 (pH 5.0)
[13] = listed as amorphous 1 eq. besylate salt

| Structure (SMILES) | Purity [2, 5] [%] | Original morphology [2] | Original purity [2] [%] | Purity [2, 8] [%] | pH measured at 2 h [3, 9] | Solubility measured at 2 h [3, 9] [µg/mL] | XRPD measured at 2 h [3, 9] | pH measured at 2 h [3, 10] | Solubility measured at 2 h [3, 10] [µg/mL] | XRPD measured at 2 h [3, 10] | pH measured at 2 h [3, 11] | Solubility measured at 2 h [3, 11] [µg/mL] | XRPD measured at 2 h [3, 11] | pH measured at 2 h ([3]; Test ES3: FeSSIF-V1 (pH 5.0)) | Solubility measured at 2 h ([3]; Test ES3: FeSSIF-V1 (pH 5.0)) [µg/mL] | XRPD measured at 2 h ([3]; Test ES3: FeSSIF-V1 (pH 5.0)) | pH measured at 2 h ([3]; Test ES5: SGF (pH 2.0)) | Solubility measured at 2 h ([3]; Test ES5: SGF (pH 2.0)) [µg/mL] | XRPD measured at 2 h ([3]; Test ES5: SGF (pH 2.0)) | also measured |
| --- | --- | --- | --- | --- | --- | --- | --- | --- | --- | --- | --- | --- | --- | --- | --- | --- | --- | --- | --- | --- |
| C=CC(=O)Nc1cc(Nc2ncnc(-c3cn(C)c4ccccc34)n2)c(OC)cc1N(C)CCN(C)C [compound of formula (I)] | – | – | – | – | – | – | – | – | – | – | – | – | – | – | – | – | – | – | – | inhibitory activity against EGFR activating mutation compared with wild-type EGFR (WT EGFR) [1]: significantly higher |
| C=CC(=O)Nc1cc(Nc2ncnc(-c3cn(C)c4ccccc34)n2)c(OC)cc1N(C)CCN(C)C [Example 3] | 99.6 | amorphous | 99.9 | 99.6 | (6.1) | >2000 | clear solution | (0.71 | >2000 | clear solution | (4.2) | >2000 | clear solution | (4.8) | >2000 | clear solution | (1.8) | >2000 | clear solution | chemical and physical stability after storage (summary) [2, 6]: physically unstable; chemical and physical stability after storage (summary) [2, 7]: physically unstable; physical and chemical stability under storage (in words) ([2]; solid/25° C./60% RH/open/1 week, listed as amorphous 2 eq. hydrochloride salt): slight color change and showed a certain hygroscopicity (partial agglomeration); physical and chemical stability under storage (in words) ([2]; solid/60° C./closed container/1 week, listed as amorphous 2 eq. hydrochloride salt): good physical and chemical stability; chemical and physical stability at the end of the preparation [4, 6]: chemically and physically stable; chemical and physical stability at the end of the preparation [4, 7]: chemically and physically stable |
| C=CC(=O)Nc1cc(Nc2ncnc(-c3cn(C)c4ccccc34)n2)c(OC)cc1N(C)CCN(C)C [Example 1] | 99.6 | amorphous | 99.9 | 99.9 | (6.8) | >2000 | clear solution | (0.8) | >2000 | clear solution | (4.6) | – | clear solution | (4.9) | – | clear solution | (2.4) | >2000 | clear solution | physical and chemical stability under storage (in words) ([2]; solid/25° C./60% RH/open/1 week, listed as amorphous free base): good physical and chemical stability; physical and chemical stability under storage (in words) ([2]; solid/60° C./closed container/1 week, listed as amorphous free base): transformed from amorphous to a moderate crystallinity; solubility at 2 h ([3]; 50 mM phosphate buffer, 37 °C, pH 4.5, aqueous buffer, Test ES2: 50 mM phosphate buffer (pH 4.5)): > 2000 µg/mL; solubility at 24 h ([3]; FaSSIF-V1, 37 °C, pH 6.5, fassif, Test ES4: FaSSIF-V1 (pH 6.5)): > 2000 µg/mL; solubility at 2 h [3, 12]: > 2000 µg/mL; solubility at 24 h [3, 12]: > 2000 µg/mL; Solubility measured at 24 h ([3]; Test ES3: FeSSIF-V1 (pH 5.0)): >2000 µg/mL; pH measured at 24 h ([3]; Test ES3: FeSSIF-V1 (pH 5.0)): (5.0); XRPD measured at 24 h ([3]; Test ES3: FeSSIF-V1 (pH 5.0)): clear solution; Solubility measured at 24 h ([3]; Test ES4: FaSSIF-V1 (pH 6.5)): >2000 µg/mL; pH measured at 24 h ([3]; Test ES4: FaSSIF-V1 (pH 6.5)): (6.8); XRPD measured at 24 h ([3]; Test ES4: FaSSIF-V1 (pH 6.5)): clear solution; chemical and physical stability at the end of the preparation ([4]; listed as amorphous free base): chemically and physically stable |
| C=CC(=O)Nc1cc(Nc2ncnc(-c3cn(C)c4ccccc34)n2)c(OC)cc1N(C)CCN(C)C [Example 6] | 98.2 | amorphous | 99.7 | 99.6 | (6.5) | >2000 | clear solution | (0.7) | >2000 | clear solution | (4.5) | >2000 | clear solution | (4.8) | >2000 | clear solution | (2.1) | >2000 | clear solution | decrease in purity ([2]; solid/25° C./60% RH/open/1 week): about 2%; chemical and physical stability after storage (summary) ([2]; listed as 1 eq. besylate salt): chemically unstable; chemical and physical stability after storage (summary) [2, 13]: chemically unstable; physical and chemical stability under storage (in words) ([2]; solid/60° C./closed container/1 week, listed as amorphous 1 eq. besylate salt): good physical and chemical stability; chemical and physical stability at the end of the preparation ([4]; listed as 1 eq. besylate salt): chemically and physically stable; chemical and physical stability at the end of the preparation [4, 13]: chemically and physically stable |

— US20230234941A1, “Salts of Compound and Pharmaceutical Compositions Containing the Same” (Shenzhen Forward Pharmaceuticals Co., Limited., priority 2020, published 2023)
